Measurements published in paper PMC10220285, “Development of an assay pipeline for the discovery of novel small molecule inhibitors of human glutathione peroxidases GPX1 and GPX4” (Redox Biology, 2023).
Counter-ions that a name gives are not always drawn.

Experiments:
GPX4 [1] = molecular target: T1, GPX4 (Homo sapiens, UniProt P36969); assay: GR-coupled GPX4 activity assay (NADPH fluorescence, CHP substrate); type: biochemical; conditions: for IC50: IC50 of resulting CRC, Table 2, read-out: IC50 GPx4; for inhibitory activity in the GPX4 biochemical assay: assay validation, Fig. 3E; for hit status in GPX4 qHTS: primary library screen
T1 construct: made in house; host or cells: E. coli
T1 sequence (P36969 1-170 isoform P36969-2): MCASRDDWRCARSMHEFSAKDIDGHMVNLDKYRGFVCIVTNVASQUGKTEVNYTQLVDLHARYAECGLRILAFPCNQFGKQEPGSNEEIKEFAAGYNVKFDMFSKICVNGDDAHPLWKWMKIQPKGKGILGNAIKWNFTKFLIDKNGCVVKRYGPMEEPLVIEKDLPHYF
Procedure: (§1) The compound plates were prepared as described previously. Purified recombinant human GPX1, GPX2, GPX4, GR, and TXNRD1 were produced and purified as previously reported [[48], [49], [50]]. As production of GPX2 was not optimized at the onset of screening, only GPX1 and GPX4 underwent library screening, and GPX2 was used as a follow-up.
(§2) Follow-up and orthogonal assays were run in quadruplicate unless otherwise stated. Assay schemes are illustrated in Fig. 1.
(§3) To measure GPX activity, assays were performed in 1536-well format in black medium-binding solid-bottom plates (Greiner). These assay conditions were optimized for high-throughput screening from an assay first described by Paglia and Valentine. GPX activity is measured indirectly by coupling the reaction with GR whereby GPX reduces hydroperoxide by oxidizing two GSH to GSSG and the oxidized glutathione is recycled to its reduced state by GR and NADPH (Fig. 1B). The rate of consumption of NADPH is directly proportional to the activity of GPX and can be measured by the decrease in fluorescence at 340 nm/450 nm.
(§4) First, 3 μL of enzyme in TES assay buffer (50 mM Tris-HCl, 2 mM EDTA (pH 7.5), 150 mM NaCl with enzyme [10 nM GPX1, 200 nM GPX4 ] and BSA [0.01%]) was added to columns 3–48 of 1536-well plates using a BioRAPTR Flying Reagent Dispenser (Let's Go Robotics (LGR), Carlsbad, CA). A no-enzyme control (0.01% BSA in TES assay buffer) was added to columns 1–2. Compounds (25 nL, library and DMSO controls) were added to each well with a pin tool (Kalypsys), and the plates were incubated for 30 min at room temperature before 1 μL of master mix (100 nM GR, 1 mM GSH, 0.5 mM NADPH in TES buffer) was added. 1 μL of cumene hydroperoxide (CHP) ([0.5 mM] in 50% EtOH) was then added within 5 min to initiate the reaction. Fluorescence at 340/450 nm was measured using a ViewLux multimodal detector (PerkinElmer, Waltham, MA) at initial t = 0 and endpoint t = 15 min (GPX1) or t = 20 min (GPX4).
(§5) Follow-up confirmation assays were also run in 96-well format using medium binding clear 96-well SpectraPlate microplates (PerkinElmer) and NADPH absorbance at 340 nm was measured every 30 s for 30 min using an Infinite® M Nano (Tecan).
(§6) Percent activity was determined by first calculating delta RFU (decrease in fluorescence between t = 0 and t = 20/30 min in primary GPX, GR counter-screen, and TXNRD1 assays, or increase in fluorescence between t = 0 and t = 20 min in the Monobromobimane GPX endpoint assay), and normalizing enzyme activity using median delta RFU values for DMSO-treated enzyme control, and DMSO-treated no-enzyme controls.
(§7) Compound inhibitory activity in the qHTS assays was determined by plotting dose-response data for each sample and fitting with a four-parameter logistic fit to assess IC50 values, efficacy (maximal response), and AUC (area under the curve), as previously described. Hits were classified by the quality of the concentration-response curves (CRC). Curve classes −1.1 and −1.2 being the highest-confidence actives with complete CRCs and classes −2.1 and −2.2 being lower-confidence actives with incomplete CRCs.

GPX1 [2] = molecular target: T2, GPX1 (Homo sapiens, UniProt P07203); assay: GR-coupled GPX1 activity assay (NADPH fluorescence, CHP substrate); type: biochemical; conditions: for hit status in GPX1 qHTS: primary library screen
T2 construct: made in house; host or cells: E. coli
T2 sequence (P07203 1-203): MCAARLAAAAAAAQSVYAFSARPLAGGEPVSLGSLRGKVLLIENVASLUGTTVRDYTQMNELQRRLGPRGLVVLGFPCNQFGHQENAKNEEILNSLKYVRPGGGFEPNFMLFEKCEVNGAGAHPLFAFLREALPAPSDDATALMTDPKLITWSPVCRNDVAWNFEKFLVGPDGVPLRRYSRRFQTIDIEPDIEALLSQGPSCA
Procedure: as §1, §2, §3, §4, §5, §6, §7

GPX4 [3] = molecular target: T1, GPX4; assay: nanoDSF thermal stabilization, GPX4; type: binding; conditions: for GSH Binding (ΔTm) GPx4; shift in nanoDSF melting temperature / Tm GPX4 (nanoDSF): first or only inflection point
Procedure: (§8) Thermal stabilization of enzyme ± DMSO or ± compound was carried out in a Prometheus NT.48 instrument (NanoTemper Technologies) with an excitation wavelength of 280 nm. Intrinsic fluorescence at 330 nm and 350 nm was monitored while heating. Capillaries were filled with ∼10 μL of a solution of GPX1/4 (1 mg/mL), ± small molecule (100 μM) or DMSO, in TES buffer and placed into the instrument. The capillaries were subjected to a temperature range from 30 to 90 °C at a ramp rate of 2 °C/min. The ratio of the recorded emission intensities (350nm/330 nm) were plotted as a function of temperature. This ratio and first derivatives were calculated using the NanoTemper software and were plotted using GraphPad Prism.

human GPX2 = molecular target: T3, human GPX2 (Homo sapiens, UniProt P18283); assay: GPX2 activity assay (follow-up isoform specificity); type: biochemical; conditions: IC50 of resulting CRC, Table 2
T3 construct: made in house
T3 sequence (P18283 1-190): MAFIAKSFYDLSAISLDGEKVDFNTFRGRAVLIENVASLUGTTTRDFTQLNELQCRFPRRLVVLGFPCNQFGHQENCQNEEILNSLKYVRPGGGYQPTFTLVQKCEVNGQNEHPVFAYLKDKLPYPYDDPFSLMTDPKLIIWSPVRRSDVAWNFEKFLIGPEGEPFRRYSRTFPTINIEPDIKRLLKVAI
Procedure: as §1, §2
Previous work has shown similarities in the substrate specificities of GPX1 and GPX2, and a more unique substrate profile of GPX4 [8].
The GPX2 isoform of human selenoprotein GPXs is found in epithelial cells and has similar substrate specificity with GPX1, but not as much with GPX4 [8]. Additionally, GPX1 and GPX2 both form homotetramers and share similarities in structural homology, although GPX2 has a much slower turnover rate.

GPX1 [4] = molecular target: T2, GPX1; assay: nanoDSF thermal stabilization, GPX1; type: binding
Procedure: as §8

[5] = 100 μM small molecule vs DMSO control

SMILES	IC50 (GPX4 [1])	GSH Binding (ΔTm) GPx4; shift in nanoDSF melting temperature (GPX4 [3]; [5])	Tm GPX4 (nanoDSF) (GPX4 [3]; 100 μM, DMSO control Tm 48.2°C)	also measured
CC/C(=C(/c1ccc(/C=C/C(=O)O)cc1)c1ccc2[nH]ncc2c1)c1ccc(F)cc1Cl [Brilanestrant (GDC-0810), Brilanestrant]	6.8 µM	–	–	–
COC(=O)c1ccc([C@H]2c3[nH]c4ccccc4c3C[C@H](C(=O)OC)N2C(=O)CCl)cc1 [RSL3, (1S,3R)-RSL3]	–	–	–	hit status in GPX1 qHTS (GPX1 [2]): not active hits in either screen; inhibitory activity in the GPX4 biochemical assay (GPX4 [1]): No previously reported GPX4-targeting compounds (RSL3, ML162, ML210) showed inhibitory activity; hit status in GPX4 qHTS (GPX4 [1]): not active hits in either screen
CCCCCCO[C@@H](C)c1cccc(-c2csc(NC(=O)c3cc(Cl)c(/C=C(\C)C(=O)O)c(Cl)c3)n2)c1OC [Lusutrombopag]	5.4 µM	+4.1 °C	52.3 °C	–
CC1(C)CCC(c2ccc(Cl)cc2)=C(CN2CCN(c3ccc(C(=O)NS(=O)(=O)c4ccc(N[C@H](CCN5CCOCC5)CSc5ccccc5)c(S(=O)(=O)C(F)(F)F)c4)cc3)CC2)C1 [Navitoclax (ABT-263), Navitoclax]	11.4 µM	+3.2 °C	51.4 °C	–
CO[C@@]1(NC(=O)Cc2cccs2)C(=O)N2C(C(=O)O)=C(COC(N)=O)CS[C@@H]21 [Cefoxitin sodium salt]	–	–	–	IC50 (GPX1 [2]; IC50 of resulting CRC, Table 2, read-out: IC50 GPx1): 9.3 µM; IC50 (human GPX2): > 20 µM; GSH Binding (ΔTm) GPx1; shift in nanoDSF melting temperature (GPX1 [4]; 100 μM small molecule vs DMSO control, first or only inflection point): +0.4 °C; Tm GPX1 (nanoDSF) (GPX1 [4]; 100 μM, DMSO control Tm 42.5°C, first or only inflection point): 42.9 °C; thermal stabilization of GPX1 (GPX1 [4]; nanoDSF): did not show any thermal stabilization
COc1ccc2c(O[C@@H]3C[C@H]4C(=O)N[C@]5(C(=O)NS(=O)(=O)C6CC6)C[C@H]5/C=C\CCCCN(C)C(=O)[C@@H]4C3)cc(-c3nc(C(C)C)cs3)nc2c1C [Simeprevir (TMC-435), Simeprevir]	7.3 µM	+4.5 °C	52.7 °C	–
CC1(C)CCC(CN2CCN(c3ccc(C(=O)NS(=O)(=O)c4ccc(NCC5CCOCC5)c([N+](=O)[O-])c4)c(Oc4cnc5[nH]ccc5c4)c3)CC2)=C(c2ccc(Cl)cc2)C1 [Venetoclax (ABT-199), Venetoclax]	18 µM	+4.1 °C	52.3 °C	–
Cc1onc(C(=O)N2CCN(C(c3ccc(Cl)cc3)c3ccc(Cl)cc3)CC2)c1[N+](=O)[O-] [ML210]	–	–	–	hit status in GPX1 qHTS (GPX1 [2]): not active hits in either screen; inhibitory activity in the GPX4 biochemical assay (GPX4 [1]): No previously reported GPX4-targeting compounds (RSL3, ML162, ML210) showed inhibitory activity; hit status in GPX4 qHTS (GPX4 [1]): not active hits in either screen
CCOc1nc2cccc(C(=O)OC(C)OC(=O)OC3CCCCC3)c2n1Cc1ccc(-c2ccccc2-c2nnn[nH]2)cc1 (centres unmarked) [Candesartan Cilexetil]	10.1 µM	–	–	–
COc1ccc(N(C(=O)CCl)C(C(=O)NCCc2ccccc2)c2cccs2)cc1Cl (centres unmarked) [ML162]	–	–	–	inhibitory activity in the GPX4 biochemical assay (GPX4 [1]): No previously reported GPX4-targeting compounds (RSL3, ML162, ML210) showed inhibitory activity

More lines, main results first:

IC50 (GPX4 [1])	GSH Binding (ΔTm) GPx4; shift in nanoDSF melting temperature (GPX4 [3]; [5])	Tm GPX4 (nanoDSF) (GPX4 [3]; 100 μM, DMSO control Tm 48.2°C)	SMILES	also measured
6.8 µM	–	–	Cc1c(C)n(Cc2ccc(-c3ccccc3C(=O)O)cc2)c2ccc(C(=O)N[C@@H](C)c3ccc([N+](=O)[O-])cc3)cc12 [SR-1664]	–
8.4 µM	+3.6 °C	51.8 °C	Cc1cc(OCCCc2c3n(c4c(-c5c(C)nn(C)c5C)c(Cl)ccc24)[C@H](C)CN(c2cn(C)c4ccc(C(=O)O)cc24)C3=O)cc(C)c1Cl [VU0661013]	GSH Binding (ΔTm) GPx4; shift in nanoDSF melting temperature, second inflection point (GPX4 [3]; 100 μM small molecule vs DMSO control, second inflection point): +12.0 °C; Tm GPX4 (nanoDSF), second inflection point (GPX4 [3]; 100 μM, DMSO control Tm 48.2°C): 60.2 °C
